10 compounds from patent publication US8445503B2, “Inhibitors of polo-like kinase” (Elan Pharmaceuticals, Inc., priority 2009, dated 2013) can be followed below.

Holding throughout (type): biochemical
One assay deals with T1, GST-PLK2 (Homo sapiens, UniProt Q9NYY3).
T1 construct: purchased CarnaBio
Briefly: PLK TR-FRET peptide assay, PLK2. The note with it: for IC50: PLK TR-FRET peptide assay, GST-PLK2, read-out: Plk2 IC50; for PLK2 activity relative to the opposite enantiomer / other isomer: comparison of resolved enantiomers, used to assign absolute configuration. (In general: In TR-FRET formats the signal depends on donor and acceptor labels being close together.)

The target of another assay is T2, GST-PLK3 (Homo sapiens, UniProt Q9H4B4).
T2 construct: purchased CarnaBio
T2 sequence (Q9H4B4 whole entry): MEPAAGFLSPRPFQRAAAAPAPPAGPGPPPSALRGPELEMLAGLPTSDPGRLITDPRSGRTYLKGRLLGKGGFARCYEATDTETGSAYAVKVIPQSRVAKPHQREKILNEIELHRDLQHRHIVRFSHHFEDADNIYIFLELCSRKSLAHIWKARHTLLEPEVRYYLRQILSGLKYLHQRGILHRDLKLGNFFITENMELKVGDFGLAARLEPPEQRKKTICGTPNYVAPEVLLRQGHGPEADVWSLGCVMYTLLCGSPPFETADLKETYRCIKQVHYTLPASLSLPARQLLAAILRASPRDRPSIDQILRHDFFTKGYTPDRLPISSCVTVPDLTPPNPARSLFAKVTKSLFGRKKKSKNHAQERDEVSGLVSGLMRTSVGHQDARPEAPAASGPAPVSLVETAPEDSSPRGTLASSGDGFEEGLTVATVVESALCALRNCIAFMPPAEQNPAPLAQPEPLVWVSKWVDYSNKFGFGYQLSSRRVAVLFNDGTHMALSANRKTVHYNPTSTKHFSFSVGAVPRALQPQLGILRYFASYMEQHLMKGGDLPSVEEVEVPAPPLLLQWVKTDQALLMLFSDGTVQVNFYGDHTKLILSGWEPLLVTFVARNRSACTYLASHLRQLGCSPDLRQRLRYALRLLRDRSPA
Briefly: PLK TR-FRET peptide assay, PLK3. Conditions: PLK TR-FRET peptide assay, GST-PLK3; read-out: Plk3 IC50.

The target in the next assay is GST-PLK1 (Homo sapiens, UniProt P53350). Kind of assay: PLK TR-FRET peptide assay, PLK1. Conditions: read-out: Plk1 IC50.
GST-PLK1, sequence (P53350 whole entry): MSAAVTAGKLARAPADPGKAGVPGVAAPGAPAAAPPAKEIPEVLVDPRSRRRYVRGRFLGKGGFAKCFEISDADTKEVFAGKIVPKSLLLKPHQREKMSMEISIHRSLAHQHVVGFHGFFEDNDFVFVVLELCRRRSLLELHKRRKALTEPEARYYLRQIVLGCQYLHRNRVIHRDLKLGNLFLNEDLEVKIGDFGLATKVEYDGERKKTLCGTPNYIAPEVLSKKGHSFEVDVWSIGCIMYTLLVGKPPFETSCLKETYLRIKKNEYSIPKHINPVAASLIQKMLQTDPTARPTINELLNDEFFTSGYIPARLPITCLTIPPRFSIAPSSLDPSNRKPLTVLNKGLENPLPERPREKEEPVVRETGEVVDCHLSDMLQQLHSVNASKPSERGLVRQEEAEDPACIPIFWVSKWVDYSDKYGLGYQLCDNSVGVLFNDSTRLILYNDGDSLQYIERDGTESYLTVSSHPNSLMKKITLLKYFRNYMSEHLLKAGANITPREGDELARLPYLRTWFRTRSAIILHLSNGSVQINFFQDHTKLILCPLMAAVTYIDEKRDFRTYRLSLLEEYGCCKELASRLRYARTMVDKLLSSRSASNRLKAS

T1 sequence (Q9NYY3 whole entry): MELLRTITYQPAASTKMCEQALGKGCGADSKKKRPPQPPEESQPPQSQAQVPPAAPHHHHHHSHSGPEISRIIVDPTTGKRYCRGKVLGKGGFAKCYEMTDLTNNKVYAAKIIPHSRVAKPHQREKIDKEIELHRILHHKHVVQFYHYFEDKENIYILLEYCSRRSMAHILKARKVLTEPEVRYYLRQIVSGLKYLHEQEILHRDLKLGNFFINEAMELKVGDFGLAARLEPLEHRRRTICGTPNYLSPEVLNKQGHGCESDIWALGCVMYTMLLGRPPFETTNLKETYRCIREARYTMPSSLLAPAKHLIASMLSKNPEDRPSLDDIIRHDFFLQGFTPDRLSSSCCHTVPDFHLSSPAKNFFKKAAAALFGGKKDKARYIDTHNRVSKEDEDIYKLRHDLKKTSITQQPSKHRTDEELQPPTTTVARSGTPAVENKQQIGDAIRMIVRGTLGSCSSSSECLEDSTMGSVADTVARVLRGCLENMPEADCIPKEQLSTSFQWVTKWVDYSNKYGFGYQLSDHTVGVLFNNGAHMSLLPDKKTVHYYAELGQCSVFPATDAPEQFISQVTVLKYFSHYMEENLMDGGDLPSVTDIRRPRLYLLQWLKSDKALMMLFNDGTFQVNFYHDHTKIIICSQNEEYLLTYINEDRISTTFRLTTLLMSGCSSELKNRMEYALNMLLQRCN

In the case of `CC[C@@H]1C(=O)N(C)c2cnc(-c3cn(C)nc3-c3nccs3)nc2N1c1cnn(C)c1` [Example 417, (R)-7-ethyl-5-methyl-8-(1-methyl-1H-pyrazol-4-yl)-2-(1-methyl-3-(thiazol-2-yl)-1H-pyrazol-4-yl)-7,8-dihydropteridin-6(5H)-one], the IC50 on GST-PLK2 was less than 1 µM; at GST-PLK3 it was more than 50 µM; on GST-PLK1, 10 to 50 µM.
Regarding `CC[C@@]12COCCN1c1nc(-c3snnc3-c3ccccc3)ncc1N(C)C2=O` [Example 368, (S)-6a-ethyl-5-methyl-2-(4-phenyl-1,2,3-thiadiazol-5-yl)-6a,7,9,10-tetrahydro-[1,4]oxazino[3,4-h]pteridin-6(5H)-one], the figures for the IC50 on GST-PLK2, on GST-PLK3 and on GST-PLK1 were less than 1 µM, 1 to 10 µM and more than 50 µM, respectively. Further, the “PLK2 activity relative to the opposite enantiomer / other isomer” value on GST-PLK2 is “more active compound”.
Consider `CC[C@H]1C(=O)N(C)c2cnc(-n3ccnc3-c3ccccc3)nc2N1c1cnn(C)c1` [Example 410, (S)-7-ethyl-5-methyl-8-(1-methyl-1-pyrazol-4-yl)-2-(2-phenyl-1H-imidazol-1-yl)-7,8-dihydropteridin-6(5H)-one], for which the IC50 at GST-PLK2, on GST-PLK3 and at GST-PLK1 was more than 50 µM in each case.
Consider `CC[C@@H]1C(=O)N(C)c2cnc(-c3cncnc3-c3ccccc3)nc2N1C1CCCC1` [Example 132, (R)-8-cyclopentyl-7-ethyl-5-methyl-2-(4-phenylpyrimidin-5-yl)-7,8-dihydropteridin-6(5H)-one], for which the IC50 on GST-PLK2, on GST-PLK3 and at GST-PLK1 was less than 1 µM each time.
`CC[C@@H]1C(=O)N(C)c2cnc(-n3ccnc3-c3nccs3)nc2N1C1CCOCC1` [Example 157, (R)-7-ethyl-5-methyl-8-(tetrahydro-2H-pyran-4-yl)-2-(2-(thiazol-2-yl)-1H-imidazol-1-yl)-7,8-dihydropteridin-6(5H)-one]: the IC50 is less than 1 µM at GST-PLK2, 10 to 50 µM at GST-PLK3 and 1 to 10 µM at GST-PLK1.
As to `CC[C@@H]1C(=O)N(C)c2cnc(-n3ccnc3-c3ccccn3)nc2N1C(C)C` [Example 153, (R)-7-ethyl-8-isopropyl-5-methyl-2-(2-(pyridin-2-yl)-1H-imidazol-1-yl)-7,8-dihydropteridin-6(5H)-one], the IC50 at GST-PLK2 was less than 1 µM; at GST-PLK3, 1 to 10 µM; on GST-PLK1, 1 to 10 µM.
For `CC[C@]12COCCN1c1nc(-n3ccnc3-c3ccccc3)ncc1N(C)C2=O` (single isomer, unassigned) [Example 315], the results for the IC50 at GST-PLK2, on GST-PLK3 and on GST-PLK1 were 10 to 50 µM, more than 50 µM and more than 50 µM, respectively.
For the compound `CC[C@@]12COCCN1c1nc(-n3ccnc3-c3ccc(F)cn3)ncc1N(C)C2=O` [Example 380, (S)-6a-ethyl-2-(2-(5-fluoropyridin-2-yl)-1H-imidazol-1-yl)-5-methyl-6a,7,9,10-tetrahydro-[1,4]oxazino[3,4-h]pteridin-6(5H)-one], the values for the IC50 on GST-PLK2, on GST-PLK3 and on GST-PLK1 were less than 1 µM, more than 50 µM and more than 50 µM, respectively. In addition, the “PLK2 activity relative to the opposite enantiomer / other isomer” value at GST-PLK2 was “more active compound”.
For the compound `CC[C@@]12COCCN1c1nc(-c3cnoc3-c3ccccc3)ncc1N(C)C2=O` [Example 413, (S)-6a-ethyl-5-methyl-2-(5-phenylisoxazol-4-yl)-6a,7,9,10-tetrahydro-[1,4]oxazino[3,4-h]pteridin-6(5H)-one], the 50% inhibitory concentration (IC50) on GST-PLK2 was less than 1 µM; on GST-PLK3, 10 to 50 µM; on GST-PLK1 it was 10 to 50 µM.
Consider `CC[C@@H]1C(=O)N(C)c2cnc(-n3ccnc3-c3cncnc3)nc2N1C1CCCC1` [Example 159, (R)-8-cyclopentyl-7-ethyl-5-methyl-2-(2-(pyrimidin-5-yl)-1H-imidazol-1-yl)-7,8-dihydropteridin-6(5H)-one], for which the IC50 was less than 1 µM on GST-PLK2, 1 to 10 µM at GST-PLK3 and less than 1 µM on GST-PLK1.

A word on the IC50: it is the concentration at which inhibition is half-maximal.
